Here are results for 1 molecule from patent US8778403B2, “Diketopiperazine microparticles with defined specific surface areas” (MannKind Corporation, priority 2009, dated 2014).

Each structure is given as a SMILES string.

This series is described as follows: Solubility of FDKP as a function of pH. Type of series: physicochemical.

Regarding `O=C(O)/C=C/C(=O)NCCCCC1NC(=O)C(CCCCNC(=O)/C=C/C(=O)O)NC1=O` (centres unmarked) [FDKP, bis-3,6-(N-fumaryl-4-aminobutyl)-2,5-diketo-diketopiperazine], the solubility result runs as follows: (at neutral or basic pH) “readily soluble”; (in acid) “low solubility”.
